We go through three molecules from ChEMBL document CHEMBL3600317, “In silico investigation of FOXM1 binding and novel inhibitors in epithelial ovarian cancer” (Bioorg Med Chem, 2015).

pIC50: −log10 of the molar value. Active and inactive are the calls of the source. The rule behind the calls is not given here.

In test [1] the test system is SK-OV-3. In words: Inhibition of CCNB1 mRNA expression in human SKOV3 cells at 1 uM by RT-PCR analysis. Format: functional, cell-based.
Test [2] concerns OVCAR-3. In words: Cytotoxicity against human OVCAR3 cells after 72 hrs by sulforhodamine B assay. To be noted: OVCAR-3, 72 h. Format: functional, cell-based.
The subject of test [3] is SK-OV-3. Briefly: Inhibition of CCNB1 protein expression in human SKOV3 cells at 1 uM by Western blot analysis. It counts as functional, cell-based. On the technique in general: Immunoblotting shows a protein as a band on a membrane.
Test [4] relates to ES2. Briefly: Inhibition of CCNB1 mRNA expression in human ES2 cells at 1 uM by RT-PCR analysis. Format: functional, cell-based.
A short description of test [5]: Cytotoxicity against human ES2 cells after 72 hrs by sulforhodamine B assay. It counts as functional, cell-based. Conditions: ES-2, 72 h. A general note: The SRB assay estimates cell density from bound dye.
Test [6] deals with SK-OV-3. In words: Cytotoxicity against human SKOV3 cells after 72 hrs by sulforhodamine B assay. It counts as functional, cell-based. To be noted: SK-OV-3, 72 h.
The subject of test [7] is SK-OV-3. Briefly: Inhibition of CDC25B mRNA expression in human SKOV3 cells at 1 uM by RT-PCR analysis. It counts as functional, cell-based.
Test [8] deals with SK-OV-3. In words: Inhibition of FOXM1 protein expression in human SKOV3 cells at 1 uM by Western blot analysis. It counts as functional, cell-based.
For test [9], the system named is ES2. Briefly: Inhibition of FOXM1 protein expression in human ES2 cells at 1 uM by Western blot analysis. Format: functional, cell-based.
Test [10] deals with ES2. In words: Inhibition of FOXM1 mRNA expression in human ES2 cells at 1 uM by RT-PCR analysis. Format: functional, cell-based.
In test [11] the test system is OVCAR-3. Briefly: Inhibition of CCNB1 protein expression in human OVCAR3 cells at 1 uM by Western blot analysis. Format: functional, cell-based.
Test [12] concerns ES2. Briefly: Inhibition of CDC25B mRNA expression in human ES2 cells at 1 uM by RT-PCR analysis. Format: functional, cell-based.
Test [13] concerns ES2. Briefly: Inhibition of CCNB1 protein expression in human ES2 cells at 1 uM by Western blot analysis. Format: functional, cell-based.
Test [14] concerns OVCAR-3. In words: Inhibition of FOXM1 protein expression in human OVCAR3 cells at 1 uM by Western blot analysis. It counts as functional, cell-based.
Test [15] deals with SK-OV-3. Briefly: Inhibition of FOXM1 mRNA expression in human SKOV3 cells at 1 uM by RT-PCR analysis. Format: functional, cell-based.
Test [16] concerns ES2. In words: Cytotoxicity against human ES2 cells at 10 uM after 72 hrs by sulforhodamine B assay. It counts as functional, cell-based.
Test [17] deals with SK-OV-3. Briefly: Cytotoxicity against human SKOV3 cells at 10 uM after 72 hrs by sulforhodamine B assay. Format: functional.
The subject of test [18] is OVCAR-3. In words: Cytotoxicity against human OVCAR3 cells at 10 uM after 72 hrs by sulforhodamine B assay. It counts as functional.
For test [19], the system named is SK-OV-3. In words: Cytotoxicity against human SKOV3 cells at 1 nM to 100 uM after 72 hrs by sulforhodamine B assay. Format: functional, cell-based.
For test [20], the system named is OVCAR-3. In words: Cytotoxicity against human OVCAR3 cells at 1 nM to 100 uM after 72 hrs by sulforhodamine B assay. Format: functional, cell-based.
The test system of test [21] is ES2. In words: Cytotoxicity against human ES2 cells at 1 nM to 100 uM after 72 hrs by sulforhodamine B assay. Format: functional, cell-based.

As usually defined, the pIC50 is −log10 of the IC50, conventionally taken in molar units. Lower therefore signals a high IC50. In the case of `c1ccc(Nc2cc3ccccc3c3ccccc23)cc1`, the inhibition result in the test with SK-OV-3 [1], in the test on SK-OV-3 [3], in the test with ES2 [4], with SK-OV-3 [7], in the test on SK-OV-3 [8] and with ES2 [9] was “Active” in each case. The inhibition entry with ES2 [10], with OVCAR-3 [11], in the test with ES2 [12], in the test with ES2 [13], in the test with OVCAR-3 [14] and with SK-OV-3 [15] was “Active” throughout. Further, the pIC50 (in the test on OVCAR-3 [2]; in test [5]; in the test with SK-OV-3 [6]) was 6.00 each time.

Turning to `O=C(Nc1ccc2ncccc2c1)Nc1ccc2ncccc2c1`, the result in the test with ES2 [16] was inactive. In addition, the Activity in the test on SK-OV-3 [17] and with OVCAR-3 [18] was 20% in each case.

As to `CC(=O)Nc1ccccc1[N+](=O)[O-]`, the outcome in the test with SK-OV-3 [19], in the test with OVCAR-3 [20] and in the test with ES2 [21] was inactive.
